Test results reported in patent publication US12552785B2, “Pyrazolo[1,5-α]pyridine derivative, preparation method therefor, and composition and use thereof” (SHENZHEN ZHONGGE BIOLOGICAL TECHNOLOGY CO., LTD., priority 2020, dated 2026).

Assays:
RET = RET (Homo sapiens, UniProt P07949); test: HTRF method for testing the inhibitory activity of compounds against RET; format: biochemical; conditions: IC50 by nonlinear regression, read-out: RET kinase activity
Protocol: (a) In Vitro Screening Experiment-HTRF Method for Testing the Inhibitory Activity of Compounds Against RET Experimental Procedure: 1. […] 2. The test compound (5 mM stock solution) was diluted 5 folds to 1 mM with 100% dimethyl sulfoxide; the compound was diluted into 10 concentrations at an equal ratio of 1:3 in a 384-well dilution plate. 3. 0.2 μL of the serially diluted compound was added to a 384-well plate using an Echo 550 pipetting system, 2 replicate wells for each concentration, and the final concentration of dimethyl sulfoxide was 0.5% (v/v). […] 6. […] The reaction solution was centrifuged at 1000 g for 30 s, and then sealed, and incubated at room temperature for 30 min. 8. […] 10. […] 11. […] IC50 was calculated with software GraphPad 6.0 by fitting inhibition values and logarithms of compound concentrations to a nonlinear regression (dose response−variable slope).

Ba/F3-KIF5B-RET cell = target: T1, Ba/F3-KIF5B-RET cell (Homo sapiens, UniProt P07949); test: CellTiter-Glo luminescence assay for inhibitory activity against Ba/F3-KIF5B-RET cell; format: cell-based; conditions: Ba/F3-KIF5B-RET cells, 72 h
T1 construct: fused on or other part: P33176 (Kinesin-1 heavy chain)
T1 sequence (P07949 whole entry, stated change not applied, the tested form may be a part): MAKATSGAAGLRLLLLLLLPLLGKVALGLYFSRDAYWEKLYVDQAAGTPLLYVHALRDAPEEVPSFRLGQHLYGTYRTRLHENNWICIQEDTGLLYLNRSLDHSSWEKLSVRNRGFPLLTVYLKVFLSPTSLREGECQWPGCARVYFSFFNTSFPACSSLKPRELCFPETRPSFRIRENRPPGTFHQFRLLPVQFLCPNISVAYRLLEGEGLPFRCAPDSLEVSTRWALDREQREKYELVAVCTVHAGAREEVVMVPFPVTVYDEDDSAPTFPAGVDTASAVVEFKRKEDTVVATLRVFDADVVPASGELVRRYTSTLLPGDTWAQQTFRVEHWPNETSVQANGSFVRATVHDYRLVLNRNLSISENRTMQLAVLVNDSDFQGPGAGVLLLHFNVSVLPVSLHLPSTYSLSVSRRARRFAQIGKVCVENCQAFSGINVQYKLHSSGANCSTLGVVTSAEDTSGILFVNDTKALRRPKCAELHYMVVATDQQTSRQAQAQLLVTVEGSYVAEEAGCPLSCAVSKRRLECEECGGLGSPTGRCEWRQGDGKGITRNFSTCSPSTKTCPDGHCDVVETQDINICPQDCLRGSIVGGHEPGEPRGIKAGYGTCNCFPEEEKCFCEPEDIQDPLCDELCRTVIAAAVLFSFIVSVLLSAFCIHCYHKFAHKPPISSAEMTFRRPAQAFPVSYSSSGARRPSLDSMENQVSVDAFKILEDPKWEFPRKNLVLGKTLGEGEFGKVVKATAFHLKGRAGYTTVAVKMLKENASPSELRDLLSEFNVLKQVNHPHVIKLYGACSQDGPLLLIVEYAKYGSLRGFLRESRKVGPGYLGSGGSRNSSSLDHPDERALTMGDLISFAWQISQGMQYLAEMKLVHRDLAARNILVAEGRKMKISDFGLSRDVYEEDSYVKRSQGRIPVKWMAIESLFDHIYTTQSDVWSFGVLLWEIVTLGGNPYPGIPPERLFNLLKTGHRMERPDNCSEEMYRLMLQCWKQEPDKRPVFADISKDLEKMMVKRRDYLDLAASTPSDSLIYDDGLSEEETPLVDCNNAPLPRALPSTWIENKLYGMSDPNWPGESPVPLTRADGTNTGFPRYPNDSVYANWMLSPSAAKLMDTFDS
Text: (c) In Vitro Screening Experiment—CellTiter-Glo Luminescence Assay for Testing the Inhibitory Activity of Compounds Against Ba/F3-KIF5B-RET Cell Experimental Procedure: 1. The mammalian cell expression vector containing human KIF5B-RET cDNA was introduced into Ba/F3 cells using the Neon® transfection system method, and the surviving clones screened by puromycin were subjected to cell growth inhibitory function experiments and Western blotting to verify cell lines with stable and high expression of RET. 2. […] 3. The test compound (5 mM stock) was diluted 2.5 folds to 2 mM with 100% dimethyl sulfoxide; and the compound was diluted into 10 concentrations at an equal ratio of 1:3 in a 384-well dilution plate. 4. […] 6. […] 7. By fitting the data with XLFit 5.0 based on the parameters formula, the IC50 value was calculated as: Y=Bottom+(Top−Bottom)/(1+10^((Log IC50−X)*HillSlope)).

VEGFR2 = VEGFR2 (Homo sapiens, UniProt P35968); test: HTRF method for testing the inhibitory activity of compounds against VEGFR2; format: biochemical; conditions: IC50 by nonlinear regression, read-out: VEGFR2 kinase activity
Sequence of VEGFR2 (P35968 20-1356, species assumed): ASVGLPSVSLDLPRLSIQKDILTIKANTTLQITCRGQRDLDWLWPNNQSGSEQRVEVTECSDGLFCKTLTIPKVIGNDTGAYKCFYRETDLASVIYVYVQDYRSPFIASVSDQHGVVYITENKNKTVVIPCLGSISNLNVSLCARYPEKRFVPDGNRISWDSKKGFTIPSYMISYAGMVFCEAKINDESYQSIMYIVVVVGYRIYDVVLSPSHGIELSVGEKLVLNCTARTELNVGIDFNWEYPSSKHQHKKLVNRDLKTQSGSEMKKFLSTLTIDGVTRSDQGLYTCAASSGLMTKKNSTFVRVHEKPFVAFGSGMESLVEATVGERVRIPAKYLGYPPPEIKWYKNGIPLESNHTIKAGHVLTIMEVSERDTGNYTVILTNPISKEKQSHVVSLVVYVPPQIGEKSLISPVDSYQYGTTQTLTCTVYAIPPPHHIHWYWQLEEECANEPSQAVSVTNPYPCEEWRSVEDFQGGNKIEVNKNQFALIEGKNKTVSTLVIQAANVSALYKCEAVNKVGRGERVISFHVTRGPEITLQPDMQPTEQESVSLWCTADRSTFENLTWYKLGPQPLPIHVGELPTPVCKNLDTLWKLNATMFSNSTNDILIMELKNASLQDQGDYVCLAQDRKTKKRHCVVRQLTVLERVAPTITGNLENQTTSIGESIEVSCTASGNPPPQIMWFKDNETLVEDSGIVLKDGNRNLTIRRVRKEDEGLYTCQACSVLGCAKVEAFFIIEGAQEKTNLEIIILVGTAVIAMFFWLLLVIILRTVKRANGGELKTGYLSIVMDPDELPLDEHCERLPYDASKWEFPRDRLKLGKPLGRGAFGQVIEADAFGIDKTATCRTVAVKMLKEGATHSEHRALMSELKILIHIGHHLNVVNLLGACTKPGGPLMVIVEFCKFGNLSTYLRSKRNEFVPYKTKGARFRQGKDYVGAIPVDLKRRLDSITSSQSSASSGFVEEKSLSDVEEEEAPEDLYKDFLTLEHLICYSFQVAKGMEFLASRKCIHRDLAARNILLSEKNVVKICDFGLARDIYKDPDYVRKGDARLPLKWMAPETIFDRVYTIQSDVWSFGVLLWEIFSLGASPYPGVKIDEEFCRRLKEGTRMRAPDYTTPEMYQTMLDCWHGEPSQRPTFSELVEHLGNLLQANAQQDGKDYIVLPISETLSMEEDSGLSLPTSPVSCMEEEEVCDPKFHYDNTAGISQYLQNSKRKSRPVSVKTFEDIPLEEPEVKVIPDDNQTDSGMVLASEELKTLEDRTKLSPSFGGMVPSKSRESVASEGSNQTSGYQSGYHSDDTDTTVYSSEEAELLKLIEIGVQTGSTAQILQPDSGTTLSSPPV
Protocol: (b) In Vitro Screening Experiment—HTRF Method for Testing the Inhibitory Activity of Compounds Against VEGFR2 Experimental Procedure: 1. […] The test compound (5 mM stock solution) was diluted 5 folds to 1 mM with 100% dimethyl sulfoxide; the compound was diluted into 10 concentrations at an equal ratio of 1:3 in a 384-well dilution plate. 3. […] 6. […] The reaction solution was centrifuged at 1000 g for 30 s, and then sealed, and incubated at room temperature for 40 min. 8. […] 10. […] 11. […] 12. IC50 was calculated with software GraphPad 6.0 by fitting inhibition values and logarithms of compound concentrations to a nonlinear regression (dose response−variable slope).

Sequence of RET (P07949 29-1114): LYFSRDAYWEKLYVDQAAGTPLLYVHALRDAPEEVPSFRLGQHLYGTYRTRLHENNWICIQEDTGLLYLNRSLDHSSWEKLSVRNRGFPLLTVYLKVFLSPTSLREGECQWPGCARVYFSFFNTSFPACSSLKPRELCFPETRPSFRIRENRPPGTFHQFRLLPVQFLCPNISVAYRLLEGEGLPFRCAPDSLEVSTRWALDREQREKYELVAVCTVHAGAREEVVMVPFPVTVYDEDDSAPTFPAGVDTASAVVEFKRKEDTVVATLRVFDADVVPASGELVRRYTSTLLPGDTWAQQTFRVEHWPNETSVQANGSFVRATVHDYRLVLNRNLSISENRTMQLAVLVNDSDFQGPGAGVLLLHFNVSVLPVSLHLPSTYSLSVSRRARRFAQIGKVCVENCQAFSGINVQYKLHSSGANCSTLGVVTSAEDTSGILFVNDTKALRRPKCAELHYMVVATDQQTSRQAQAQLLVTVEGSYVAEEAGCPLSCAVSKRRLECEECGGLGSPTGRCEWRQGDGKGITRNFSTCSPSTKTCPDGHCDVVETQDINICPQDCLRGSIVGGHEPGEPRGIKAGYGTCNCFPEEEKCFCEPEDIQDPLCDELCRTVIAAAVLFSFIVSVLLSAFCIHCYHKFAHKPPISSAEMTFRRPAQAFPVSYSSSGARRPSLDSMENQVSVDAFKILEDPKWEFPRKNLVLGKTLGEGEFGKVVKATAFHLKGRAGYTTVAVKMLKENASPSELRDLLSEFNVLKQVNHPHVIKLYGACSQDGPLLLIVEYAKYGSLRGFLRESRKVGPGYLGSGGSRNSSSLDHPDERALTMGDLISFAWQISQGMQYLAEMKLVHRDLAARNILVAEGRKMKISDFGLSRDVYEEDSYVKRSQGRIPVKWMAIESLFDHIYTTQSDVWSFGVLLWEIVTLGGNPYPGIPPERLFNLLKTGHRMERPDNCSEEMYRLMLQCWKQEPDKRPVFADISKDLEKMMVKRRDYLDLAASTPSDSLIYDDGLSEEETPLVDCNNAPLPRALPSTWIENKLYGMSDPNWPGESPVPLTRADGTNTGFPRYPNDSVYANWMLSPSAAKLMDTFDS

SMILES	IC50 (RET) [nM]	GI50 (Ba/F3-KIF5B-RET cell) [nM]	IC50 (VEGFR2) [nM]
CC(C)(O)COc1cc(-c2ccc(NCc3ccc(N4CCCC4=O)nc3)nc2)c2c(C#N)cnn2c1 [Compound 8, 6-(2-hydroxy-2-methylpropoxy)-4-(6-((6-(2-oxopyrrolidin-1-yl)pyridin-3-yl)methylamino)pyridine-3-yl)pyrazolo[1,5-a]pyridine-3-carbonitrile]	9.4	68.5	170
CC(C)(O)COc1cc(-c2ccc(NCc3ccc(-c4cccnc4)nc3)nc2)c2c(C#N)cnn2c1 [Compound 9, 4-(6-(([2,3′-bipyridyl]-5-ylmethyl)amino)pyridin-3-yl)-6-(2-hydroxy-2-methylpropoxy)pyrazole[1,5-a]pyridine-3-carbonitrile]	19.6	145	116
CC(C)(O)COc1cc(-c2ccc(NCc3ccc4cccnc4c3)nc2)c2c(C#N)cnn2c1 [Compound 13]	5.17	50.8	136
CN(Cc1ccc2ncccc2c1)c1ccc(-c2cc(OCC(C)(C)O)cn3ncc(C#N)c23)cn1 [Compound 14, 6-(2-hydroxy-2-methylpropoxy)-4-(6-(methyl(quinolin-6-ylmethyl)amino)pyridin-3-yl)pyrazolo[1,5-a]pyridine-3-carbonitrile]	16.6	220	347
C=CCOc1cc(-c2ccc(N(C)[C@@H](C)c3ccc(-n4cc(F)cn4)nc3)nc2)c2c(C#N)cnn2c1 [Compound 31, (S)-4-(6-((1-(6-(4-fluoro-1H-pyrazol-1-yl)pyridin-3-yl)ethyl)(methyl)amino)pyridine-3-yl)-6-allyloxypyrazolo[1,5-a]pyridine-3-carbonitrile]	269		> 5000
Cc1cnn(-c2ccc([C@H](C)N(C)c3ccc(-c4cc(OCC(C)(C)O)cn5ncc(C#N)c45)cn3)cn2)c1 [Compound 37]		18.6	270
CCN(CC)c1ccc([C@H](C)N(C)c2ccc(-c3cc(OCC(C)(C)O)cn4ncc(C#N)c34)cn2)cn1 [Compound 42, (S)-4-(6-((1-(6-(diethylamino)pyridin-3-yl)ethyl)(methyl)amino)pyridin-3-yl)-6-(2-hydroxy-2-methylpropoxy)pyrazolo[1,5-a]pyridine-3-carbonitrile]	18		199
C[C@@H](c1ccc(-n2cc(Cl)cn2)nc1)N(C)c1ccc(-c2cc(OCC(C)(C)O)cn3ncc(C#N)c23)cn1 [Compound 45, (S)-4-(6-((1-(6-(4-chloro-1H-pyrazol-1-yl)pyridin-3-yl)ethyl)(methyl)amino)pyridine-3-yl)-6-(2-hydroxy-2-methylpropoxy)pyrazo[1,5-a]pyridine-3-carbonitrile]		39.3	1980
Cc1ccc([C@H](C)N(C)c2ccc(-c3cc(OCC(C)(C)O)cn4ncc(C#N)c34)cn2)cn1 [Compound 63]	4.56		361
C#Cc1cc(-c2ccc(N(C)[C@@H](C)c3ccc(-n4cc(F)cn4)nc3)nc2)c2c(C#N)cnn2c1 [Compound 65]	2.66		780
CCc1cc(-c2ccc(N(C)[C@@H](C)c3ccc(-n4cc(F)cn4)nc3)nc2)c2c(C#N)cnn2c1 [Compound 66]	4.35		241

The next compounds have a lower IC50 (VEGFR2) than those just listed; values first:

IC50 (RET) [nM]	GI50 (Ba/F3-KIF5B-RET cell) [nM]	IC50 (VEGFR2) [nM]	SMILES
0.34	13.9	7.37	CC(C)(O)COc1cc(-c2ccc(NCc3ccc(-n4cc(F)cn4)nc3)nc2)c2c(C#N)cnn2c1 [Compound 1, 4-(6-(((6-(4-fluoro-1H-pyrazol-1-yl)pyridin-3-yl)methyl)amino)pyridin-3-yl)-6-(2-hydroxy-2-methylpropoxy)pyrazolo[1,5-a]pyridine-3-carbonitrile]
0.46	10.7	3.51	C[C@H](Nc1ccc(-c2cc(OCC(C)(C)O)cn3ncc(C#N)c23)cn1)c1ccc(-n2cc(F)cn2)nc1 [Compound 2, (S)-4-(6-((1-(6-(4-fluoro-1H-pyrazol-1-yl)pyridin-3-yl)ethyl)amino)pyridin-3-yl)-6-(2-hydroxy-2-methylpropoxy)pyrazolo[1,5-a]pyridine-3-carbonitrile]
0.19	18	1.08	N#Cc1cnn2cc(OC[C@H]3CNCCO3)cc(-c3ccc(NCc4ccc(-n5cc(F)cn5)nc4)nc3)c12 [Compound 3]
0.18	12	0.31	C[C@H](Nc1ccc(-c2cc(OC[C@H]3CNCCO3)cn3ncc(C#N)c23)cn1)c1ccc(-n2cc(F)cn2)nc1 [Compound 4]
6.3	85.1	44.7	C[C@@H](Nc1ccc(-c2cc(OCC(C)(C)O)cn3ncc(C#N)c23)cn1)c1ccc(-n2cc(F)cn2)nc1 [Compound 5, (R)-4-(6-((1-(6-(4-fluoro-1H-pyrazol-1-yl)pyridin-3-yl)ethyl)amino)pyridin-3-yl)-6-(2-hydroxy-2-methylpropoxy)pyrazolo[1,5-a]pyridine-3-carbonitrile]
1.2	50.5	11.8	CC(Nc1ccc(-c2cc(OCC(C)(C)O)cn3ncc(C#N)c23)cn1)c1ccc(-n2cc(F)cn2)nc1 (stereo not drawn) [Compound 6]
7.14	203	72.1	CC(C)(O)COc1cc(-c2ccc(NCc3ccc(-n4ccnc4)nc3)nc2)c2c(C#N)cnn2c1 [Compound 7]
2.08	7.3	90.8	CC(C)(O)COc1cc(-c2ccc(NCc3ccc(N4CCCC4)nc3)nc2)c2c(C#N)cnn2c1 [Compound 10, 6-(2-hydroxy-2-methylpropoxy)-4-(6-(((6-(pyrrolidin-1-yl)pyridin-3-yl)methyl)amino)pyridine-3-yl)pyrazo[1,5-a]pyridine-3-carbonitrile]
12.5	613	110	Cc1cn(-c2ccc(CNc3ccc(-c4cc(OCC(C)(C)O)cn5ncc(C#N)c45)cn3)cn2)cn1 [Compound 11]
12.8	75.5	107	CC(C)(O)COc1cc(-c2ccc(NCc3ccc(N4CCOCC4)nc3)nc2)c2c(C#N)cnn2c1 [Compound 12]
0.58	10.4	2.95	CC[C@H](Nc1ccc(-c2cc(OCC(C)(C)O)cn3ncc(C#N)c23)cn1)c1ccc(-n2cc(F)cn2)nc1 [Compound 15, (S)-4-(6-((1-(6-(4-fluoro-1H-pyrazol-1-yl)pyridin-3-yl)propyl)amino)pyridin-3-yl)-6-(2-hydroxy-2-methylpropoxy)pyrazolo[1,5-a]pyridine-3-carbonitrile]
0.83		48.3	COc1cc(-c2ccc(N(C)[C@@H](C)c3ccc(-n4cc(F)cn4)nc3)nc2)c2c(C#N)cnn2c1 [Compound 40, (S)-4-(6-((1-(6-(4-fluoro-1H-pyrazol-1-yl)pyridin-3-yl)ethyl)(methyl)amino)pyridine-3-yl)-6-methoxypyrazolo[1,5-a]pyridine-3-carbonitrile]
0.34		49.7	C[C@@H](c1ccc(-n2cc(F)cn2)nc1)N(C)c1ccc(-c2cc(OCCF)cn3ncc(C#N)c23)cn1 [Compound 41, (S)-4-(6-((1-(6-(4-fluoro-1H-pyrazol-1-yl)pyridin-3-yl)ethyl)(methyl)amino)pyridine-3-yl)-6-(2-fluoroethoxy)pyrazolo[1,5-a]pyridine-3-carbonitrile]
0.29		5.62	CNc1cc(-c2ccc(N(C)[C@@H](C)c3ccc(-n4cc(F)cn4)nc3)nc2)c2c(C#N)cnn2c1 [Compound 52, (S)-4-(6-((1-(6-(4-fluoro-1H-pyrazol-1-yl)pyridin-3-yl)ethyl)(methyl)amino)pyridine-3-yl)-6-(methylamino)pyrazolo[1,5-a]pyridine-3-carbonitrile]
0.3		21.1	COCCOc1cc(-c2ccc(N(C)[C@@H](C)c3ccc(-n4cc(F)cn4)nc3)nc2)c2c(C#N)cnn2c1 [Compound 54, (S)-4-(6-((1-(6-(4-fluoro-1H-pyrazol-1-yl)pyridin-3-yl)ethyl)(methyl)amino)pyridine-3-yl)-6-(2-methoxyethoxy)pyrazolo[1,5-a]pyridine-3-carbonitrile]
3.49		64.3	C[C@@H](c1ccc(-n2cc(F)cn2)nc1)N(C)c1ccc(-c2cc(N3CCCC3)cn3ncc(C#N)c23)cn1 [Compound 59]
